Assay results as given in ChEMBL document CHEMBL3044981, “Production and optimization of oxytetracycline by a new isolate Streptomyces rimosus using response surface methodology” (2012).
≈ marks a conversion by molar mass, not a printed value.

How the values were obtained:
Assay type in all cases: functional
Pseudomonas aeruginosa = test: Antibacterial activity against multidrug-resistant Pseudomonas aeruginosa by broth dilution method
Klebsiella pneumoniae = test: Antibacterial activity against multidrug-resistant Klebsiella pneumoniae MTCC 2405 by broth dilution method
Proteus vulgaris = test: Antibacterial activity against multidrug-resistant Proteus vulgaris MTCC 1771 by broth dilution method
Escherichia coli = test: Antibacterial activity against multidrug-resistant Escherichia coli MTCC 1667 by broth dilution method
Salmonella typhi = test: Antibacterial activity against multidrug-resistant Salmonella enterica subsp. enterica serovar Typhi MTCC 734 by broth dilution method
[1] = tested on: Staphylococcus epidermidis; test: Antibacterial activity against multidrug-resistant Staphylococcus epidermidis MTCC 435 by broth dilution method
Staphylococcus aureus = test: Antibacterial activity against multidrug-resistant Staphylococcus aureus MTCC 737 by broth dilution method

Structure (SMILES): CN(C)[C@@H]1C(O)=C(C(N)=O)C(=O)[C@@]2(O)C(O)=C3C(=O)c4c(O)cccc4[C@@](C)(O)[C@H]3[C@H](O)[C@@H]12 [OXYTETRACYCLINE]
- MIC (Pseudomonas aeruginosa): 12.5 µg/mL (≈ 27.1 µM)
- MIC (Klebsiella pneumoniae): 12.5 µg/mL (≈ 27.1 µM)
- MIC (Proteus vulgaris): 12.5 µg/mL (≈ 27.1 µM)
- MIC (Escherichia coli): 6.25 µg/mL (≈ 13.6 µM)
- MIC (Salmonella typhi): 3 µg/mL (≈ 6.52 µM)
- MIC [1]: 3 µg/mL (≈ 6.52 µM)
- MIC (Staphylococcus aureus): 3 µg/mL (≈ 6.52 µM)
